Test results from patent EP0831811B1, “CARBAZOLES FOR TREATING MICROBIAL INFECTIONS” (priority 1995, dated 1996).
Counter-ions that a name gives are not always drawn.

Key:
[1] = test system: Pneumocystis carinii; assay: Rat model of P. carinii pneumonia (PCP): cysts per gram of lung; format: in vivo; settings: for response vs control in vivo at 5 mg/kg: immunosuppressed rats, dose 5.0 mg/kg iv once daily for 14 days, means ± SEM, percent of saline-treated controls; for anti-P. carinii activity (in words): rat model, carbazoles tested at one half the dose of pentamidine
Description: (§1) The activity of the compounds against P. carinii was carried out according to an established method. See Tidwell, R. R., et al., J. Med. Chem. 33, 1252-1257 (1990); Jones, S. K., et al., Antimicrob. Agents Chemother. 34, 1026-1030 (1990); Tidwell, R.R., et al., Antimicrob. Agents Chemother. 37, 1713-1716 (1993). The induction and treatment of P. carinii pneumonia (PCP) was carried out with only minor alterations to published methods. See Frenkel, J.K. et al., Lab. Invest. 15, 1559 (1966); Hughes, W.T. et al., Antimicrob. Agents Chemother. 5, 289 (1974). Briefly, male Sprague-Dawley rats (barrier raised, not certified virus-free) weighing 150-200g each, were obtained (Hilltop Laboratories, Scottsdale, PA). Immediately upon arrival, the animals were caged individually and begun on a low protein (8%) diet and on drinking water containing tetracycline (0.5 mg/mL) and dexamethasone ([…]). This regimen was continued for eight weeks. At the beginning of the seventh week, animals were divided into groups of 8 or more, and the test compounds were administered for 14 days by single daily IV injection. Generally, the daily dose was 5 mg/kg of body weight and was dissolved in 0.4 mL of saline. Saline- and pentamidine-treated groups were included as controls.
Animals were sacrificed at the end of the eighth week by chloroform inhalation. The right lung was inflated in situ with 10% formalin and fixed for histological examination. The lung tissue was sectioned in the long axis and exposed to the GMS stain, which selectively identified the walls of the P. carinii cysts.
The left lung was weighed, ground through a No. 60 wire mesh screen, and suspended 1:10 (wt/vol) in 10 mM β-mercaptoethanol-Hanks' balanced salts solution (HBSS) without cations. Slides were prepared by spotting 5 µL of lung homogenate diluted 1:10 in HBSS with β-mercaptoethanol and allowed to air dry. The slides were stained with cresyl violet, and the cysts were counted by a blinded protocol. The number of cysts per gram of original lung tissue was calculated, and the groups were reported as the percentages of saline-treated controls.
Anti-P. carinii activity is measured by the reduction in the number of cysts per gram of lung tissue for treated animals as compared to untreated controls. The anti-P. carinii value for each compound is expressed as the percent of cysts in the treatment group as compared to the control group. […] It should be noted that compound 3 was tested at one half the dose of pentamidine as were all of the carbazoles.

[2] = test system: Calf thymus DNA; assay: DNA binding by thermal melting (ΔTm); settings: for DNA binding calf thymus ΔTm(°C): absorbance at 259 nm, heated at 18°C/h, average of at least two determinations
Description: DNA binding potency was determined for each of the compounds because previous work had determined that the binding of dicationic molecules to DNA is a prerequisite for their antimicrobial activity. See e.g., Tidwell, R.R., et al., Antimicrob. Agents Chemother. 37, 1713-1716 (1993); Bell, C. A., et al., Antimicrob. Agents Chemother. 35, 1099-1107 (1991). The DNA binding of the compounds was determined by the change in melting of the DNA bound to the experimental compounds. The method is well documented and is a considered a standard method for determining DNA binding strength. See Cory, M.. et al., J. Med. Chem. 25, 431-438 (1992). In brief, a UV-visible light spectrophotometer with a cuvette changer was interfaced to a microcomputer that recorded the cuvette temperature and DNA-absorbance data at 259 nm as the sample was heated at a rate of 18°C/h. Calf thymus DNA was used at an initial absorbance of 0.3A259. The midpoint of each denaturation curve was determined after graphic selection on the computer of the starting and ending absorbance temperature for each curve of each experiment. DNA or DNA bound to experimental compound was run in each experiment and the ΔTms were determined from the polynucleotide Tm for that experiment. […] The data reported in Table 1 represent the average of at least two determinations of ΔTm.

[3] = Toxicity seen in the rat PCP treatment study; parameters: species or system Sprague-Dawley rats; settings: in vivo, iv, 5 mg/kg
Description: as §1

[4] = test system: Cryptosporidium parvum; assay: Neonatal mouse model of Cryptosporidium parvum infection: oocysts in the bowel; format: in vivo; settings: for Efficacy: C. parvum
Description: Besides the potency shown by this compound against P. carinii infection in the rat model, the compound was also effective in a neonatal mouse model of Cryptosporidium parvum infection. This model has been described in detail in previous reports. See Blagburn, B. L.; et al., Antimicrob. Agents Chemother. 35, 1520-1523 (1991). The compound's activity against C. parvum is measured by a reduction in the number of oocysts detected in the bowel of treated mice compared to untreated controls.

[5] = test system: C. albicans; assay: Broth dilution antifungal susceptibility test (NCCLS M27-P), MIC and MFC; format: cell-based
Description: (§2) Activity of the compound was assessed using a standard in vitro fungal cell growth inhibition assay (the broth dilution antifungal susceptibility testing of yeast, proposed standard document M27-P, validated by the National Committee for Clinical Laboratory Standards, 1992). Briefly, this broth dilution procedure uses PMI media, and an inoculum of […] with media alone. After the minimal inhibitor concentration was determined by the above procedure, tubes with no visible growth were subcultured to determine the minimum fungicidal concentration by using criteria of less than 0.01% survival of original inoculum. Two organisms were tested: (1) H99, a clinical isolate of C. neoformans which is fully susceptible to azoles and polyenes in vitro and in vivo; and (2) A39, a clinical isolate of C. albicans which is fully susceptible to azoles and polyenes.
(§3) The MFC's (minimum fungicidal concentration) for compound 9 against these two important AIDS-associated fungal infections are shown in Table 2.

[6] = test system: Cryptococcus neoformans; assay: as above; format: cell-based
Description: as §2, §3

[7] = Pneumocystis carinii, 336 h, read-out: in vivo activity against PCP cysts/g lung % control
[8] = in vitro fungal cell growth inhibition

Cn1c2ccc(C3=NCCCN3)cc2c2cc(C3=NCCCN3)ccc21 [Compound 6, 3,6-bis[2-(1,4,5,6-tetrahydropyrimidinyl)]-9-methylcarbazole dihydrochloride]
response vs control in vivo at 5 mg/kg [1, 7]: 0.14 ± 0.05% | DNA binding calf thymus ΔTm(°C) [2]: 13.6 °C

CC(C)N=C(N)c1ccc2[nH]c3ccc(C(N)=NC(C)C)cc3c2c1 [Compound 2, 3,6-diisopropylamidinocarbazole dihydrochloride]
response vs control in vivo at 5 mg/kg [1, 7]: 0.11 ± 0.08% | toxicity [3]: 0

c1cc2c(cc1C1=NCCCN1)c1cc(C3=NCCCN3)ccc1n2CC1CCCCC1 [Compound 7, 3,6-bis[2-(1,4,5,6-tetrahydropyrimidinyl)]-9-cyclohexylmethylcarbazole dihydrochloride]
response vs control in vivo at 5 mg/kg [1, 7]: 4.1 ± 1.59% | anti-P. carinii activity (in words) [1]: failed to exhibit anti-P. carinii significantly more potent than the control drug, pentamidine | DNA binding calf thymus ΔTm(°C) [2]: 7.3 °C

c1cc2[nH]c3ccc(C4=NCCN4)cc3c2cc1C1=NCCN1 [Compound 3, 3,6-bis(2-imidazolinyl)carbazole dihydrochloride]
response vs control in vivo at 5 mg/kg [1, 7]: 0.06 ± 0.02% | toxicity [3]: 0

Cl.Cl.N=C(N)c1ccc2[nH]c3ccc(C(=N)N)cc3c2c1 [Compound 1, 3,6-diamidinocarbazole dihydrochloride]
response vs control in vivo at 5 mg/kg [1, 7]: 0.8 ± 0.36% | toxicity [3]: 0 | DNA binding calf thymus ΔTm(°C) [2]: 17.2 °C

c1cc2c(cc1C1=NCCN1)[nH]c1cc(C3=NCCN3)ccc12 [Compound 10, 2,7-bis(2-imidazolinyl)carbazole dihydrochloride]
response vs control in vivo at 5 mg/kg [1, 7]: 0.5 ± 0.33% | toxicity [3]: 0

N=C(N)c1ccc(OCCCCCOc2ccc(C(=N)N)cc2)cc1 [pentamidine, reference compound]
response vs control in vivo at 10 mg/kg ([1]; Pneumocystis carinii, iv, 336 h, read-out: in vivo activity against PCP cysts/g lung % control): 1.84 ± 0.82% | DNA binding calf thymus ΔTm(°C) [2]: 10.7 °C

Cl.Cl.N=C(N)c1ccc2c(c1)[nH]c1cc(C(=N)N)ccc12 [Compound 9, 2,7-diamidinocarbazole dihydrochloride]
response vs control in vivo at 5 mg/kg [1, 7]: 0.17 ± 0.06% | toxicity [3]: 0 | DNA binding calf thymus ΔTm(°C) [2]: 19.0 °C | activity against C. parvum (in words) [4]: effective | Efficacy ([4]; 14.6 µmol/kg oral): 6.1 % control | Efficacy ([4]; 29.3 µmol/kg oral): 0.30% control | Efficacy ([4]; 58.6 µmol/kg oral): 0.89 % control | MIC ([5]; Candida albicans, in vitro, A39 clinical isolate of C. albicans): 0.78 µg/mL | MFC ([5]; Candida albicans, in vitro, A39 clinical isolate of C. albicans, less than 0.01% survival of original inoculum): 1.56 µg/mL | activity in vitro (in words) [5, 8]: highly active | MIC ([6]; Cryptococcus neoformans, in vitro, H99 clinical isolate of C. neoformans): 6.25 µg/mL | MFC ([6]; Cryptococcus neoformans, in vitro, H99 clinical isolate of C. neoformans, less than 0.01% survival of original inoculum): 50 µg/mL | activity in vitro (in words) [6, 8]: highly active

c1cc2[nH]c(-c3ccc4[nH]c5ccc(-c6nc7cc(C8=NCCN8)ccc7[nH]6)cc5c4c3)nc2cc1C1=NCCN1 [Compound 8, 3,6-bis[2-imidazolinyl)-2-benzimidazoyl]carbazole tetrahydrochloride]
response vs control in vivo at 5 mg/kg [1, 7]: 61.9 ± 14.5% | anti-P. carinii activity (in words) [1]: failed to exhibit anti-P. carinii significantly more potent than the control drug, pentamidine | anti-P. carinii activity (in words) ([1]; listed as compound 8): only moderate activity | toxicity [3]: 0 | DNA binding (in words) [2]: highly potent as a DNA binding agent | DNA binding calf thymus ΔTm(°C) [2]: 22.2 °C

c1cc2c(cc1C1=NCCN1)c1cc(C3=NCCN3)ccc1n2CC1CCCCC1 [Compound 5, 9-cyclohexylmethyl-3,6-bis(2-imidazolinyl)carbazole dihydrochloride]
response vs control in vivo at 5 mg/kg [1, 7]: 35.8 ± 4.87% | toxicity [3]: 0

Cn1c2ccc(C3=NCCN3)cc2c2cc(C3=NCCN3)ccc21 [Compound 4, 3,6-bis(2-imidazolinyl)-9-methylcarbazole dihydrochloride]
response vs control in vivo at 5 mg/kg [1, 7]: 0.17 ± 0.11%
